In US6818739B2, “Somatostatins” (NDSU Research Foundation, priority 1999, dated 2004):
Ends that are not written are not given here.

What was measured:
[1] = tested on: goldfish pituitary fragments; conditions: goldfish pituitary fragments in vitro; Marchant et al. 1989; cited from earlier work
rainbow trout = conditions: in rainbow trout; Eilertson et al. 1993; cited from earlier work
[2] = target: T1, human somatostatin receptor subtype 1 (Homo sapiens, UniProt P30872); assay: Radio-receptor assay: competitive binding of somatostatins to cloned somatostatin receptor; conditions: microsomes from COS-7 cells transiently expressing the human SS type 1 receptor; compared with mammalian SS-14 and mammalian SS-28; FIG. 8
T1 construct: expressed in transfected cells; host or cells: COS-7 cells, transient transfection with pCMV6b expression vector; microsomal membranes
T1 sequence (P30872 whole entry): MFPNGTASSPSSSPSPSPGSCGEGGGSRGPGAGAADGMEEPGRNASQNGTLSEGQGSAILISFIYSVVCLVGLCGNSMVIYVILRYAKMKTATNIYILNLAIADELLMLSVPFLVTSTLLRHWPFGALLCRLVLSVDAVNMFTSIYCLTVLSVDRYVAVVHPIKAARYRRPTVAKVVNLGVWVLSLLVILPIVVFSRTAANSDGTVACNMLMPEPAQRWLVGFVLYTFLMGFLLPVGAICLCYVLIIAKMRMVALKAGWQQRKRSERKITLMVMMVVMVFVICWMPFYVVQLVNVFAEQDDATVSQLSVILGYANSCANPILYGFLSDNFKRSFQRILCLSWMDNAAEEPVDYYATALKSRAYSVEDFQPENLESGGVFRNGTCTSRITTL
Method: Somatostatin receptor cDNA was cloned into an expression vector, transfected into a eukaryotic cell line, and expressed as a peptide on the cell's surface to characterized the binding properties of the receptor for various somatostatin ligands.
Human somatostatin receptor subtype I cDNA was graciously obtained from Dr. Graeme Bell at the University of Chicago. Clones were prepared substantially as described in Yamada et al., Proc. Natl. Acad. Sci. USA, 89, 251-255 (1992). Briefly, a cDNA library was created by inserting total cDNA into a cloning vector. Clones containing the cDNA inserts were digested with restriction endonuclease Bg1II and subsequently subcloned in the pCMV6b expression vector (Stratagene Zap Express cDNA Synthesis Kit, La Jolla, Calif.). The resulting expression vector containing the cloned somatostatin receptor was transfected into COS-7 (American Tissue Culture Collection, Manassas, Va.) cells for peptide expression.
Twenty-four hours after splitting cells (e.g., COS-7) into new T-75 culture flasks (Nalgene, Rochester, N.Y.), the cells were washed with phosphate-buffered saline (PBS) and Tris-buffered saline-dextrose (TBS-D) solutions. […]
All tubes were incubated for 30-60 minutes at 37° C. while shaking. […] The resulting pellets were counted in a gamma counter to determine the binding properties of the various ligands to the somatostatin receptor.

[3] = target: T2, cloned human somatostatin receptor subtype 1 (human, UniProt P30872 1-391); assay: radio-receptor competition assay, displacement of 125I-[Tyr1]-SS-14 from COS-7 microsomal membranes
T2 construct: whole, on cells; Transiently expressed in COS-7 cells; The assay used microsomal membrane preparations of these cells, not intact cells; also called human SS type 1 receptor; human somatostatin receptor type 1
T2 sequence (P30872 whole entry): as above
Method: Briefly, cell membranes, 25–1000 µg, were added to two sets of tubes labeled for total and non-specific binding (in triplicate) containing the following reagents in a final volume of 300 µl.
All tubes were incubated for 30–60 minutes at 37° C. while shaking. Reactions were stopped by adding 1 ml of ice-cold assay buffer and centrifuged at 20,000×g for 15 minutes. The supernatant is aspirated off. The resulting pellets were washed once with ice-cold assay buffer and centrifuged again at 20,000×g for 15 minutes. Again, the supernatant was aspirated off. The resulting pellets were counted in a gamma counter to determine the binding properties of the various ligands to the somatostatin receptor.

Row | affinity of the human somatostatin receptor type 1 for the ligand (inhibition of binding of 125I-[Tyr1]-SS-14) [2] | binding result [3] | Molecule | ability to inhibit the release of growth hormone [1] | inhibition of insulin (rainbow trout)
1 | – | – | Ala-Gly-Cys-Lys-Asn-Phe-Phe-Trp-Lys-Thr-Phe-Thr-Ser-Cys [SS-14] | equipotent | did not
2 | – | – | Ser-Ala-Asn-Ser-Asn-Pro-Ala-Met-Ala-Pro-Arg-Glu-Arg-Lys-Ala-Gly-Cys-Lys-Asn-Phe-Phe-Trp-Lys-Thr-Phe-Thr-Ser-Cys (SANSNPAMAPRERKAGCKNFFWKTFTSC; listed as Homo sapiens) [SS-28] | equipotent | –
3 | greater affinity | – | salmonid SS-25: 25 amino acid PPSS-II″ proprotein containing [Tyr7, Gly10]-SS-14 at its C-terminus; synthetic (SVDNLPPRERKAGCKNFYWKGFTSC; ends and bridges not checked; cysteine pairing not given here) | no effect | inhibited insulin
4 | – | binds | SANSNPAMAPRERKAGCKNFFWKTFTSC [mammalian SS-28] | – | –
